Test results reported in publication PMC4284702, “Cloning and Characterization of Farnesyl Diphosphate Synthase Gene Involved in Triterpenoids Biosynthesis from Poria cocos” (International Journal of Molecular Sciences, 2014).

Target: rPc-FPS (Pc-FPS, recombinant farnesyl diphosphate synthase of Poria cocos) (Wolfiporia cocos, UniProt K7DW87)
Assay: GC of farnesol after acid phosphatase hydrolysis of product FPP
Format: biochemical
Conditions: 2 mM MgCl2, 5 mM DTT, 50 mM MOPS pH 7.5, 30 °C, 3 h

Chain of rPc-FPS (Pc-FPS, recombinant farnesyl diphosphate synthase of Poria cocos) (K7DW87 entry or part of it): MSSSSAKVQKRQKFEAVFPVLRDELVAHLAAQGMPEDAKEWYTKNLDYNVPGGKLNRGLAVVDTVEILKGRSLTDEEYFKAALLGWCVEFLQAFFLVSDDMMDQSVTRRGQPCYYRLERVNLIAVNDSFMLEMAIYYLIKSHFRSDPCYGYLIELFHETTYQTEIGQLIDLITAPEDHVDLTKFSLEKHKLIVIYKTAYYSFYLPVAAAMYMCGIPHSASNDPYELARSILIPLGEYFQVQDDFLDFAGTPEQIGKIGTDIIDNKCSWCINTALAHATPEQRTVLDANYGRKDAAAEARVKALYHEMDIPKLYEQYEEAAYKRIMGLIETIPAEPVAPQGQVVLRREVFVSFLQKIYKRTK

| Compound | GC of farnesol after acid phosphatase hydrolysis of product FPP (50 uM IPP, co-substrate 50 uM GPP) | GC of farnesol after acid phosphatase hydrolysis of product FPP (50 uM GPP, co-substrate 50 uM IPP) |
| --- | --- | --- |
| C=C(C)CCOP(=O)(O)OP(=O)(O)O [IPP] | rPc-FPS could catalyze the formation of FPP from GPP and IPP |  |
| CC(C)=CCC/C(C)=C/COP(=O)(O)OP(=O)(O)O [GPP] |  | the purified rPc-FPS was used to catalyze GPP with IPP to produce FPP |
